Reference: patent publication US20080183070A1, “Multi-mode medical device system with thermal ablation capability and methods of using same” (Wisconsin Alumni Research Foundation, priority 2007, published 2008)

Experiments:
[1] = Diffusion of a fluorescent probe in swollen gelatin gel by FRAP; format: physicochemical
Excerpt: To assess the stability of DTPA[Gd(III)] in the gelatin coating, the diffusion of a fluorescence probe in gelatin was studied by the technique of fluorescence recovery after photobleaching (FRAP). The instrument and data analysis scheme are described in Kim, S. H. and Yu, H., J. Phys. Chem. 1992, 96, 4034, which is hereby fully incorporated by reference. Fluorescein was used as the fluorescence probe due, in part, to its molecular size being roughly the same as that of DTPA[Gd(III)].
The focus of the study was to examine the possible retardation effects of gelatin concentration and cross-link density on the diffusion, which was determined at room temperature, i.e., below the gel point of gelatin. The diffusion of fluorescein probe slows down with the increase of gelatin concentration. The diffusion coefficient decreases from 1.5×10-10 to 9×10-12 m2s−1 when the concentration of gelatin increases from 9% to 40%. […] Accordingly, the probe diffusion is more likely controlled by the concentration of gelatin rather than the cross-link density. On the other hand, the cross-link density may determine the swelling ratio of gelatin, i.e., the concentration of gelatin in aqueous solution. […]

[2] = MR visibility test of the functional gelatin coating on PE rod in saline and yogurt (Example 14); conditions: after soaking in water for 12 hours
Method: Samples having the above formulations were transferred to a glass tube and kept in a water bath at 35° C. A bare PE rod (5 cm in length) was then dipped into the solution, and then removed. The rod was then cooled to room temperature to allow chill-setting of the gelatin solution and to form the coating on the rod surface. The same procedure was repeated to overcoat additional layers of gel. The final dry thickness of gel-coating was about 60 μm.
The gelatin coatings were dried in air while being chemically cross-linked by BVSM. The dried and cross-linked samples were then soaked in distilled water for 12 hours. Soaking each sample in distilled water may remove the DTPA[Gd(III)] that was not physically or chemically constrained by the cross-linked network of gelatin overcoat. Because the DTPA[Gd(III)] complexes were not chemically linked to the gelatin chains, most of them would be expected to diffuse out of the coating when soaked in water, whereas some of DTPA[Gd(III)] may be confined by the crystal domains in gelatin or by hydrogen bonding between gelatin chains and DTPA. In any event, after the soaking, the gelatin coating was dried again in air before MRI test.
The MR visibility of the samples prepared as outlined above, was tested in two media: saline and yogurt. […]

O=C(O)CN(CCN(CC(=O)O)CC(=O)O)CCN(CC(=O)O)CC(=O)O [DTPA, diethylenetriaminepentaacetic acid]
Time to diffuse out of the gelatin coating ([1]; coating thickness 60 μm, diffusion coefficient 9×10-12 m2s−1): about 67 seconds

O=C([O-])CN(CCN(CC(=O)[O-])CC(=O)O)CCN(CC(=O)[O-])CC(=O)O.[Gd+3] [DTPA[Gd(III)], gadolinium-diethylene triamine pentaacetic acid]
Retention in the gelatin coating [2]: some fraction of DTPA[Gd(III)] remained in the gel

O=C1OC2(c3ccc(O)cc3Oc3cc(O)ccc32)c2ccccc21 [fluorescein]
Fluorescence signal remaining in gelatin films ([1]; films soaked in water for 18 hours, including non-cross-linked films): still fluorescence signal
